In ChEMBL document CHEMBL1201862, “PubChem BioAssay data set” (2004):
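A five-concentration, 48-hour dose response in 96-well plates underlies each endpoint, interpolated linearly between surrounding concentrations. GI50: concentration for 50% inhibition of growth.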 Activity calls are given as the source filed them. Rule as the data show it: active = GI50 up to about 1.1 µM and inactive = higher.

Legend:
Assay in all cases: growth of human tumour cells (NCI), 48 h
HCT-116 = system: HCT-116
HL-60 = system: HL-60
HT-29 = system: HT-29
IGROV-1 = system: IGROV-1
KM12 = system: KM12
LOX IMVI = system: LOX IMVI
MOLT-4 = system: MOLT-4
NCI-H226 = system: NCI-H226
NCI-H23 = system: NCI-H23
OVCAR-5 = system: OVCAR-5
OVCAR-8 = system: OVCAR-8
RPMI-8226 = system: RPMI-8226
SK-MEL-2 = system: SK-MEL-2
SNB-75 = system: SNB-75
UACC-62 = system: UACC-62
UO-31 = system: UO-31
ACHN = system: ACHN

SMILES | GI50 (HCT-116) | GI50 (HL-60) | GI50 (HT-29) | GI50 (IGROV-1) | GI50 (KM12) | GI50 (LOX IMVI) | GI50 (MOLT-4) | GI50 (NCI-H226) | GI50 (NCI-H23) | GI50 (OVCAR-5) | GI50 (OVCAR-8) | GI50 (RPMI-8226) | GI50 (SK-MEL-2) | GI50 (SNB-75) | GI50 (UACC-62) | GI50 (UO-31) | GI50 (ACHN)
CCCN1C(=O)/C(=C(/O)C(=O)OCC)C(c2ccc(OC)c(OC)c2)C1=O (configuration not stated) | > 100 µM (inactive) | > 100 µM (inactive) | > 100 µM (inactive) | > 100 µM (inactive) | > 100 µM (inactive) | > 100 µM (inactive) | > 100 µM (inactive) | > 100 µM (inactive) | > 100 µM (inactive) | > 100 µM (inactive) | > 100 µM (inactive) | > 93.8 µM (inactive) | > 100 µM (inactive) | > 100 µM (inactive) | > 100 µM (inactive) | > 100 µM (inactive) | –
Cc1c(C)c2ccc(OC(C)C(=O)O)cc2oc1=O (configuration not stated) | > 100 µM (inactive) | > 100 µM (inactive) | > 100 µM (inactive) | > 100 µM (inactive) | > 100 µM (inactive) | > 100 µM (inactive) | > 100 µM (inactive) | > 100 µM (inactive) | > 100 µM (inactive) | – | > 100 µM (inactive) | > 100 µM (inactive) | – | > 100 µM (inactive) | > 100 µM (inactive) | > 100 µM (inactive) | > 100 µM (inactive)
C/N=c1/ss/c(=N\C(SC)=[N+](C)C)n1C.[O-][Cl+3]([O-])([O-])[O-] | > 100 µM (inactive) | 31.3 µM (inactive) | 4.98 µM (inactive) | > 100 µM (inactive) | > 100 µM (inactive) | > 100 µM (inactive) | 21.1 µM (inactive) | > 100 µM (inactive) | > 100 µM (inactive) | > 100 µM (inactive) | > 100 µM (inactive) | – | > 100 µM (inactive) | – | 3.99 µM (inactive) | > 100 µM (inactive) | > 100 µM (inactive)
COc1cccc2c1C(=O)c1c(O)c3c(c(O)c1C2=O)C[C@@](O)(C(=O)CN1CCOCC1)C[C@@H]3OC1CC(N)C(O)C(C)O1 (some centres not stated) | 1.89 µM (inactive) | 0.895 µM (active) | 0.000764 µM (active) | 5.7 µM (inactive) | 4.23 µM (inactive) | 2.09 µM (inactive) | – | 1.85 µM (inactive) | 5.3 µM (inactive) | 12.4 µM (inactive) | 4.47 µM (inactive) | 1.61 µM (inactive) | 9.48 µM (inactive) | 5.07 µM (inactive) | 3.58 µM (inactive) | 19 µM (inactive) | –
C/C(=N/NS(=O)(=O)c1c(C)cc(C)cc1C)c1cccc[n+]1[O-] | > 100 µM (inactive) | > 100 µM (inactive) | > 100 µM (inactive) | > 100 µM (inactive) | > 100 µM (inactive) | – | > 100 µM (inactive) | – | > 100 µM (inactive) | > 100 µM (inactive) | > 100 µM (inactive) | > 100 µM (inactive) | – | 76.2 µM (inactive) | > 100 µM (inactive) | > 100 µM (inactive) | > 100 µM (inactive)
C/C=C/C(=O)[C@@H](O)C(C)C | > 100 µM (inactive) | – | > 100 µM (inactive) | > 100 µM (inactive) | > 100 µM (inactive) | – | > 100 µM (inactive) | > 100 µM (inactive) | > 100 µM (inactive) | > 100 µM (inactive) | > 100 µM (inactive) | > 100 µM (inactive) | > 100 µM (inactive) | > 100 µM (inactive) | > 100 µM (inactive) | > 100 µM (inactive) | > 100 µM (inactive)
CCCCN(C)/N=N/c1[nH]cnc1C(N)=O | > 100 µM (inactive) | 60.7 µM (inactive) | > 100 µM (inactive) | > 77.8 µM (inactive) | > 100 µM (inactive) | 36.7 µM (inactive) | 41.2 µM (inactive) | > 100 µM (inactive) | > 100 µM (inactive) | > 85.1 µM (inactive) | 78.2 µM (inactive) | > 100 µM (inactive) | 44.6 µM (inactive) | > 100 µM (inactive) | 57.1 µM (inactive) | > 100 µM (inactive) | –
O=C1C2=C(C3=NCCc4c[nH]c1c43)c1c(cc(Br)c(O)c1Br)CCN2 | 14.5 µM (inactive) | 3.48 µM (inactive) | 6.59 µM (inactive) | 13.6 µM (inactive) | 13.4 µM (inactive) | 6.67 µM (inactive) | 2.81 µM (inactive) | 16.5 µM (inactive) | 13.4 µM (inactive) | 25.2 µM (inactive) | 8.53 µM (inactive) | 5.01 µM (inactive) | 13.6 µM (inactive) | 16.3 µM (inactive) | 3.47 µM (inactive) | 18.2 µM (inactive) | –
Clc1ccc(-c2c(C3=NCCCN3)nnn2-c2ccccc2)cc1 | 43.1 µM (inactive) | 17.6 µM (inactive) | 40.1 µM (inactive) | > 100 µM (inactive) | > 100 µM (inactive) | 24.9 µM (inactive) | > 100 µM (inactive) | > 100 µM (inactive) | > 100 µM (inactive) | 67 µM (inactive) | > 100 µM (inactive) | – | > 100 µM (inactive) | > 100 µM (inactive) | > 100 µM (inactive) | 71.9 µM (inactive) | > 100 µM (inactive)
CN1COCN/C1=N/C#N | > 100 µM (inactive) | > 100 µM (inactive) | > 100 µM (inactive) | > 100 µM (inactive) | > 100 µM (inactive) | > 100 µM (inactive) | > 100 µM (inactive) | > 100 µM (inactive) | – | > 100 µM (inactive) | > 10 µM (inactive) | > 100 µM (inactive) | > 100 µM (inactive) | > 100 µM (inactive) | > 100 µM (inactive) | > 100 µM (inactive) | > 100 µM (inactive)
CC1=NCCc2cc3[nH]c4ccccc4c3cc21 | 12.8 µM (inactive) | 12.1 µM (inactive) | 14.8 µM (inactive) | 26.9 µM (inactive) | 20.8 µM (inactive) | 12.6 µM (inactive) | 11.5 µM (inactive) | 15.2 µM (inactive) | 33 µM (inactive) | 16.6 µM (inactive) | 24.6 µM (inactive) | 13.2 µM (inactive) | 11.3 µM (inactive) | 23.2 µM (inactive) | 14.3 µM (inactive) | 17.6 µM (inactive) | –
C[C@]12CCC(=O)C(O)=C1CCC2=O | > 100 µM (inactive) | > 100 µM (inactive) | > 100 µM (inactive) | > 100 µM (inactive) | > 100 µM (inactive) | > 100 µM (inactive) | > 100 µM (inactive) | > 100 µM (inactive) | – | > 100 µM (inactive) | > 100 µM (inactive) | > 100 µM (inactive) | – | > 100 µM (inactive) | > 100 µM (inactive) | > 100 µM (inactive) | > 100 µM (inactive)
O=C1C[S+]([O-])c2ccccc2N1 (configuration not stated) | 71.1 µM (inactive) | > 100 µM (inactive) | > 100 µM (inactive) | > 100 µM (inactive) | > 100 µM (inactive) | 52.6 µM (inactive) | > 100 µM (inactive) | > 100 µM (inactive) | > 100 µM (inactive) | > 100 µM (inactive) | > 100 µM (inactive) | 45.8 µM (inactive) | > 100 µM (inactive) | > 100 µM (inactive) | > 100 µM (inactive) | > 100 µM (inactive) | > 100 µM (inactive)
CCOC(=O)C1=C(Nc2ccc(Cl)cc2Cl)OCC1=O | > 100 µM (inactive) | > 100 µM (inactive) | > 100 µM (inactive) | > 100 µM (inactive) | > 100 µM (inactive) | > 100 µM (inactive) | > 100 µM (inactive) | > 100 µM (inactive) | > 100 µM (inactive) | > 100 µM (inactive) | > 100 µM (inactive) | > 100 µM (inactive) | > 100 µM (inactive) | > 100 µM (inactive) | > 100 µM (inactive) | > 100 µM (inactive) | > 100 µM (inactive)
CCOC(=N)CC(=O)Nc1cccc(C)c1C | > 100 µM (inactive) | > 100 µM (inactive) | > 100 µM (inactive) | > 100 µM (inactive) | > 100 µM (inactive) | > 100 µM (inactive) | 2.77 µM (inactive) | > 100 µM (inactive) | > 100 µM (inactive) | > 100 µM (inactive) | > 100 µM (inactive) | – | > 100 µM (inactive) | > 100 µM (inactive) | > 100 µM (inactive) | > 100 µM (inactive) | > 100 µM (inactive)
C=C1C(=O)[C@@]23CC[C@H]4[C@@](C)(CCC[C@@]4(C)C(=O)OC)[C@@H]2CC[C@]1(O)C3 | 0.953 µM (active) | 0.301 µM (active) | 1.27 µM (inactive) | 1.63 µM (inactive) | 2.39 µM (inactive) | 0.953 µM (active) | 0.271 µM (active) | 3.3 µM (inactive) | 1.57 µM (inactive) | 2.02 µM (inactive) | 1.47 µM (inactive) | 0.286 µM (active) | 1.71 µM (inactive) | 2.37 µM (inactive) | 1.6 µM (inactive) | 2.32 µM (inactive) | –
CC1CCCC2(O1)OC1CC(=O)OC1C1=C2C(=O)c2ccccc2C1=O (configuration not stated) | – | 1.39 µM (inactive) | 2.42 µM (inactive) | 2.65 µM (inactive) | 12.1 µM (inactive) | 2.64 µM (inactive) | 1.58 µM (inactive) | 1.3 µM (inactive) | 5.13 µM (inactive) | 19.9 µM (inactive) | 2.51 µM (inactive) | 1.22 µM (inactive) | 2.33 µM (inactive) | 11.2 µM (inactive) | 2.25 µM (inactive) | 2.13 µM (inactive) | 4.39 µM (inactive)
